Laboratory results as given in paper PMC11641184, “Coumarin Derivative Hybrids: Novel Dual Inhibitors Targeting Acetylcholinesterase and Monoamine Oxidases for Alzheimer’s Therapy” (International Journal of Molecular Sciences, 2024).

Experiments:
[1] = target: T1, hMAO-A (Homo sapiens, UniProt P21397); experiment: biochemical; conditions: read-out: hMAO-A % inhibition at 10 μM ± SD; 10 μM inhibitor, human recombinant MAO-A, n = 3
T1 construct: purchased Aldrich (Milan, Italy)
T1 sequence (P21397 1-527): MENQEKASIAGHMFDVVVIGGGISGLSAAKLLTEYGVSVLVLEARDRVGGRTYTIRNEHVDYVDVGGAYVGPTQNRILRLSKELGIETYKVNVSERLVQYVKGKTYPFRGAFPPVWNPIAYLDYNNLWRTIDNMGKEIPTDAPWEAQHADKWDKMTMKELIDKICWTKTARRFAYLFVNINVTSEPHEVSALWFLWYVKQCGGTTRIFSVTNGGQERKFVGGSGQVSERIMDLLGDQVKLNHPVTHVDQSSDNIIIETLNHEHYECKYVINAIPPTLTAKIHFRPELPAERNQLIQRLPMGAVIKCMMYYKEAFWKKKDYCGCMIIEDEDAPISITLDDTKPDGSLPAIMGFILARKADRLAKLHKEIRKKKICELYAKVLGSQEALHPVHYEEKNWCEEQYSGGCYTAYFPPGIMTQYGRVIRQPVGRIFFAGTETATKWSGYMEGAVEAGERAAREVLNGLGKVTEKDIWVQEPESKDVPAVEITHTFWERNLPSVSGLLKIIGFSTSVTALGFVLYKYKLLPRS
Description: (§1) All enzymes and chemicals were purchased from Aldrich (Milan, Italy). Inhibition assays were performed in 96-well plates (Greiner Bio-One GmbH, Frickenhausen, Germany) using an Infinite M1000 plate reader (Tecan, Milan, Italy). Incubations were performed in triplicate, and final inhibition values were determined as mean ± SEM (n = 3).
(§2) Incubations were set at 37 °C in phosphate buffer with a pH of 7.4 for 20 min before the addition of enzyme, and the fluorescence was measured after additional incubation of 30 min.

[2] = target: T2, hMAO-B (Homo sapiens, UniProt P27338); experiment: biochemical; conditions: human recombinant MAO-B; for IC50: kynuramine, 37 °C, pH 7.4, n = 3, read-out: hMAO-B IC50 ± SEM; for inhibition at 10 µM: read-out: hMAO-B % inhibition at 10 μM ± SD, 10 μM inhibitor, n = 3
T2 construct: purchased Aldrich (Milan, Italy)
T2 sequence (P27338 1-520): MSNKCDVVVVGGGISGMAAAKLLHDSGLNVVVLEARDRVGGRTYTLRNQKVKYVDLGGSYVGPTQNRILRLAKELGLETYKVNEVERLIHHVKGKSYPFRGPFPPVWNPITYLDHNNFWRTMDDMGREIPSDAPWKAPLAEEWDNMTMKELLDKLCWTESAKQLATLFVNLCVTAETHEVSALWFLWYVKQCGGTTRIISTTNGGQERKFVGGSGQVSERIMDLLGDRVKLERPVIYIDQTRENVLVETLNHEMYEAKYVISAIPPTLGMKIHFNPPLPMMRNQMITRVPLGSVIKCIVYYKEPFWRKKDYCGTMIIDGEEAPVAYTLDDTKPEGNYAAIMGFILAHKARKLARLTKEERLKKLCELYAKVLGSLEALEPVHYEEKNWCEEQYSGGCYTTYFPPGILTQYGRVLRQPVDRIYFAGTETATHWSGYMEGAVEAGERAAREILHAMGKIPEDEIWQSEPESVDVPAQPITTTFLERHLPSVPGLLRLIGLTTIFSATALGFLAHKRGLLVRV
Description: as §1, §2

[3] = target: T3, human recombinant AChE (Homo sapiens, UniProt P22303); experiment: biochemical; conditions: for inhibition at 10 µM: read-out: hAChE % inhibition at 10 μM ± SD, 10 μM inhibitor, human recombinant AChE, n = 3
T3 construct: purchased Aldrich (Milan, Italy)
Description: as §1
The inhibition of human recombinant AChE was determined as already reported by applying Ellman’s spectrophotometric method.

[4] = in silico and in vitro studies; cited from earlier work
[5] = system: hAChE; set-up: method as in PMID 10213168; conditions: read-out: hAChE IC50 in vitro; cited from earlier work

T3 sequence (P22303 32-614): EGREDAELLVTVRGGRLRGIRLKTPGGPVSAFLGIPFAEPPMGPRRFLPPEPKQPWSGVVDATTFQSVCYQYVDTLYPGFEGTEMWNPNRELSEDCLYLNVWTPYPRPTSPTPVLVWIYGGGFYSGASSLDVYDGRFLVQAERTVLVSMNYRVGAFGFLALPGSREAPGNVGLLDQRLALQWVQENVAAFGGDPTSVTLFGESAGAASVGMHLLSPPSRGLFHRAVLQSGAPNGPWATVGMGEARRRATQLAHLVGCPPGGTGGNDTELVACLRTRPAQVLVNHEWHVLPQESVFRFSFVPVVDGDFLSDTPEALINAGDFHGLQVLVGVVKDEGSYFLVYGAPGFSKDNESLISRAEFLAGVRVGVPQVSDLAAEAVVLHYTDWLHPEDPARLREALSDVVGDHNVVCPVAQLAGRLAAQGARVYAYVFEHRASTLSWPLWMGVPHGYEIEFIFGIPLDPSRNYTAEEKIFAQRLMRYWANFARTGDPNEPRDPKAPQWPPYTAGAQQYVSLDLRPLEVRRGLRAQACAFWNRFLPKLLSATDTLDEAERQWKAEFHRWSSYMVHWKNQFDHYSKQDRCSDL

Question: Which results are given for COc1ccccc1N1CCN(CCCOc2cc(C)cc3oc(=O)cc(C)c23)CC1 [Compound 1, 4,7-dimethyl-5-{3-[4-(2-methoxyphenyl)piperazin-1-yl]propoxy}coumarin]?
Answer: inhibition at 10 µM [1]: 44 ± 4%; IC50 [2]: 2.18 ± 0.48 µM; inhibition at 10 µM [3]: 61 ± 1%

Question: Which inhibition at 10 µM [1] does the source give for COc1ccccc1N1CCN(CCCCOc2cc(C)cc3oc(=O)cc(C)c23)CC1 [Compound 2, 4,7-dimethyl-5-[4-(4-(2-methoxyphenyl)piperazin-1-yl)butoxy]coumarin] here?
Answer: 19 ± 1%

Question: And the inhibition at 10 µM [2]?
Answer: 33 ± 2%

Question: What about the inhibition at 10 µM [3] of the same molecule?
Answer: 61 ± 4%

Question: Which inhibition at 10 µM [1] does the source give for COc1cccc(N2CCN(CCCOc3cc(C)cc4oc(=O)cc(C)c34)CC2)c1 [Compound 3, 4,7-dimethyl-5-[3-(4-(3-methoxyphenyl)piperazin-1-yl)propoxy]coumarin] here?
Answer: 39 ± 5%

Question: And the IC50 [2]?
Answer: 1.88 ± 0.45 µM

Question: What about the pharmacokinetic properties [4] of the same molecule?
Answer: excellent pharmacokinetic properties

Question: And the inhibition at 10 µM [3]?
Answer: 53 ± 2%

Question: Which inhibition at 10 µM [1] does the source give for COc1cccc(N2CCN(CCCCOc3cc(C)cc4oc(=O)cc(C)c34)CC2)c1 [Compound 4, 4,7-dimethyl-5-[4-(4-(3-methoxyphenyl)piperazin-1-yl)butoxy]coumarin] here?
Answer: 38 ± 4%

Question: What about the IC50 [2] of the same molecule?
Answer: 3.18 ± 0.63 µM

Question: What about the inhibition at 10 µM [3] of the same molecule?
Answer: 56 ± 1%

Question: Which results are given for COc1ccccc1N1CCN(CCCOc2c(C(C)=O)c(C)cc3oc(=O)cc(C)c23)CC1 [Compound 5, 6-acetyl-4,7-dimethyl-5-[3-(4-(2-methoxyphenyl)piperazin-1-yl)propoxy]coumarin]?
Answer: inhibition at 10 µM [1]: 22 ± 3%; inhibition at 10 µM [2]: 34 ± 2%; inhibition at 10 µM [3]: 50 ± 6%

Question: Which inhibition at 10 µM [1] does the source give for COc1ccccc1N1CCN(CCCCOc2c(C(C)=O)c(C)cc3oc(=O)cc(C)c23)CC1 [Compound 6, 6-acetyl-4,7-dimethyl-5-[4-(4-(2-methoxyphenyl)piperazin-1-yl)butoxy]coumarin] here?
Answer: 30 ± 5%

Question: What about the inhibition at 10 µM [2] of the same molecule?
Answer: 43 ± 3%

Question: What about the inhibition at 10 µM [3] of the same molecule?
Answer: 48 ± 1%

Question: What does the source list for COc1cccc(N2CCN(CCCOc3c(C(C)=O)c(C)cc4oc(=O)cc(C)c34)CC2)c1 [Compound 7, 6-acetyl-4,7-dimethyl-5-[3-(4-(3-methoxyphenyl)piperazin-1-yl)propoxy]coumarin]?
Answer: inhibition at 10 µM [1]: 39 ± 3%; inhibition at 10 µM [2]: 35 ± 3%; inhibition at 10 µM [3]: 46 ± 3%

Question: What does the source list for COc1cccc(N2CCN(CCCCOc3c(C(C)=O)c(C)cc4oc(=O)cc(C)c34)CC2)c1 [Compound 8, 6-acetyl-4,7-dimethyl-5-[4-(4-(3-methoxyphenyl)piperazin-1-yl)butoxy]coumarin]?
Answer: inhibition at 10 µM [1]: 55 ± 2%; inhibition at 10 µM [2]: 26 ± 2%; inhibition at 10 µM [3]: 54 ± 8%

Question: With COc1ccccc1N1CCN(CCCOc2ccc3c(C)cc(=O)oc3c2C(C)=O)CC1 [Compound 9, 8-acetyl-7-{3-[4-(2-methoxyphenyl)piperazin-1-yl]propoxy}-4-methylchromen-2-one] as the molecule, how does the inhibition at 10 µM [1] read?
Answer: 32 ± 4%

Question: And the IC50 [2]?
Answer: 4.76 ± 0.34 µM

Question: What about the inhibition at 10 µM [3] of the same molecule?
Answer: 59 ± 7%

Question: Which results are given for COc1ccccc1N1CCN(CCCCOc2ccc3c(C)cc(=O)oc3c2C(C)=O)CC1 [Compound 10, 8-acetyl-7-{4-[4-(2-methoxyphenyl)piperazin-1-yl]butoxy}-4-methylchromen-2-one]?
Answer: inhibition at 10 µM [1]: 52 ± 4%; inhibition at 10 µM [2]: 24 ± 1%; pharmacokinetic properties [4]: excellent pharmacokinetic properties; IC50 [3]: 1.52 ± 0.66 µM

Question: For COc1cc2oc(=O)c(C)c(C)c2cc1OCCCN1CCN(c2ccccc2OC)CC1 [Ensaculin], which IC50 [5] is on record?
Answer: 0.36 µM
